Tests used:
[1] = Peroxidase-like (pro-oxidant) activity, OPD oxidation to DAP by H2O2; assay type: biochemical; conditions: 3.2 μM complex or salt, 0.32 mM OPD, 24 mM H2O2, PBS pH 7.8, 18 h, 25 °C
From the text: The pro-oxidant activity is named after another enzyme, the peroxidase. It is important to underline that this is a drawback of the studied complexes. Peroxidase, such as the already described […], decomposes hydrogen peroxide, producing water, but at the cost of oxidizing another substrate. Similarly, the complexes described here could remove hydrogen peroxide, catalyzing the oxidation of an organic substrate and leading to an enhancement of oxidative stress. Since all the catalytic measurements made so far were in the absence of an oxidizable substrate (excluding the catalyst itself), it is important to also verify this phenomenon. […] This variation in absorbance was monitored for 18 h via UV–Vis spectroscopy. […]
Figure S52: A) UV-vis spectra of [Cu2(L-RNH2)(H2O)2](ClO4)3 in a CAT assay measured every 10 minutes and centered at 450 nm. […] The arrow indicates the absorbance trend over time. B) Oxygen evolution (blue line) and absorbance at 244 nm (green dots) versus time.
For the peroxidase-like activity the variation of absorbance over time was monitored via UV-vis spectroscopy. The substrate OPD (o-phenylenediamine) was oxidized to DAP (2,3-diaminephenazine) by H2O2 in the presence of copper ions, leading to an increase of absorbance at 418 nm. […] The kinetic was recorded in a quartz cuvette with an optical path of 1 cm for 18h (acquiring a spectrum every 20 minutes) at 25°C. […]

[2] = UV–Vis titration of ligands with Cu(ClO4)2, binding constant by non-linear regression; conditions: global formation constant β1,2 (1 ligand : 2 Cu(II)); 1 µM ligand, 5% v/v MeOH/BBS 50 mM, pH 7.4, 25 °C
Experimental: To determine the overall equilibrium constant β1,2 (Kbind), a solution of the ligand was titrated with aliquots of 0.2 equivalents of Cu(II). Monitoring the formation of the complex via UV–Vis spectroscopy, the absorbance around 260 nm, 300 nm, 450 nm, and 700 nm increased during the titration (Figure 3a) in all cases. The latter two bands are visible only at high concentrations (>0.1 mM). These changes are caused by the formation of the complex and the disappearance of the free ligand.
In Figure 3b, the linear increase in the absorbance change (ΔAbs) at 240 nm, upon an increase in Cu(II) amount, is evident, leading to a sharp plateau around 2 equivalents. […] The binding constants were determined by non-linear regression analysis of Equation (2), (2) ∆A/b=(K1∆A1Cu+ β1,2∆A2Cu^2)/1+K1Cu+ β1,2Cu^2 which traces the correlation “ΔAbs/b vs. Cu(II) concentration,” according to K. Connors. In this equation, ΔA is the differences in absorbance at a certain wavelength, b is the optical path (1 cm), K1 is the constant for the formation of the complex 1:1, and β1,2 is the global formation constant (Kbind) for the complex 1:2. ΔA1 and ΔA2 are the differences in absorbance due to the formation of the 1:1 complex and the 1:2 complex, respectively. […]
UV-vis spectra of ligands and complexes were recorded in a quartz cuvette, with 1 cm of optical path. […]

[3] = Potentiometric titration of the Cu(II)/L-CH3 system (constants of in situ-formed complexes); assay type: binding; conditions: for logβi of in situ-formed Cu(II) complex species: overall constant, Cu(II):L 1:1 and 2:1, DMSO 5% (v/v)/H2O (HCl/KCl); for logKi of in situ-formed Cu(II) complex species: stepwise protonation constant
Experimental: The next step was the analysis of the system with L-CH3 and Cu(II). For a better investigation of the binging abilities of the L-CH3 ligand, the titration was performed both for the Cu(II):L-CH3 molar ratio = 1:1 and for 2:1. The overall (logβi) and stepwise (logKi) protonation constants of in situ-formed complexes are collected in Table 2. Depending on pH, L-CH3 forms mono- and di-nuclear complexes with Cu(II) ions, their relative abundance depending on the metal-to-ligand molar ratio.
Potentiometric measurements were carried out using the Metrohm pH-meter system (Herisau, Switzerland) with a Metrohm semi-micro combination electrode at 25 °C, calibrated in a hydrogen ion concentration using HCl. The ligands were dissolved in DMSO (5% v/v/H2O (HCl/KCl)) in order to obtain a concentration of 1 mM. The titrant (KOH 0.1M) was added with a micrometric syringe at 298 K in the pH range of 2.5–11.5 in an argon atmosphere. The stability constants and stoichiometry of the complexes were calculated using the titration curves and the SUPERQUAD and HYPERQUAD [47, 48].

[4] = cited from earlier work

Compound	logβi of in situ-formed Cu(II) complex species [3]	logKi of in situ-formed Cu(II) complex species [3]	further results
O.O.O.O.O.O.[Cu+2].[O-][Cl+3]([O-])([O-])[O-].[O-][Cl+3]([O-])([O-])[O-] [Cu(ClO4)2, copper perchlorate]			peroxidase-like (pro-oxidant) activity, Abs at 418 nm vs time [1]: much higher
NCCc1cc(CN(Cc2ccccn2)Cc2ccccn2)c(O)c(CN(Cc2ccccn2)Cc2ccccn2)c1 [HL-RNH2]			Kbind [2]: > 10^12 M^−2
Cc1cc(CN(Cc2ccccn2)Cc2ccccn2)c([O-])c(CN(Cc2ccccn2)Cc2ccccn2)c1.[Cu+2].[Cu+2] [[Cu2L]^3+]	15.50 ± 0.03	9.26	
Cc1cc(CN(Cc2ccccn2)Cc2ccccn2)c(O)c(CN(Cc2ccccn2)Cc2ccccn2)c1.[Cu+2] [[CuHL]^2+]	17.02 ± 0.03	6.82	
Cc1cc(CN(Cc2ccccn2)Cc2ccccn2)c([O-])c(CN(Cc2ccccn2)Cc2ccccn2)c1.[Cu+2] [[CuL]^+]	10.20 ± 0.03	9.58	
Cu/Zn-SOD(human): native Cu/Zn superoxide dismutase enzyme			log(kSOD) [4]: 9.30
